Reference: ChEMBL document CHEMBL4680163, “Discovery of potent epidermal growth factor receptor (EGFR) degraders by proteolysis targeting chimera (PROTAC)” (Eur J Med Chem, 2020)
Activity calls are given as the source filed them. No cut-off for these calls is given here.

Key:
[1] = system: HCC827; experiment: Antiproliferative activity against human HCC827 cells harboring EGFRDel19 mutant assessed as reduction in cell viability incubated for 72 hrs by MTT assay; format: functional, cell-based; conditions: HCC827, 72 h
[2] = system: A-431; experiment: Antiproliferative activity against human A-431 cells harboring EGFR assessed as reduction in cell viability incubated for 72 hrs by MTT assay; format: functional, cell-based; conditions: A-431, 72 h
[3] = system: HCC827; experiment: Protac activity at E3 ubiquitin ligase/EGFR in human HCC827 cells assessed as increase in degradation of EGFR at 0.1 uM pretreated with (1-(6-(5-(4-(dimethylamino)piperidin-1-yl)pyridin-2-ylamino)-2-(4-fluorophenylamino)pyrido[3,4-d]pyrimidin-4-yl)piperidin-4-yl)methanol and incubated for 6 hrs followed by compound addition and measured after 32 hrs by Western blot analysis; format: cell-based
[4] = system: HCC827; experiment: Induction of cell cycle arrest in human HCC827 cells assessed as accumulation in S phase at 1 uM incubated for 32 hrs by PI staining based flow cytometry analysis (reference value: 41.26 %); format: functional
[5] = system: HCC827; experiment: Induction of apoptosis in human HCC827 cells assessed as necrotic cells at 0.1 uM incubated for 32 hrs by annexin V-FITC and PI staining based flow cytometry analysis (reference value: 6.68 %); format: functional
[6] = system: HCC827; experiment: Induction of apoptosis in human HCC827 cells assessed as early apoptotic cells at 1 uM incubated for 32 hrs by annexin V-FITC and PI staining based flow cytometry analysis (reference value: 2.72%); format: functional
[7] = system: HCC827; experiment: Induction of cell cycle arrest in human HCC827 cells assessed as accumulation in G1 phase at 0.1 uM incubated for 32 hrs by PI staining based flow cytometry analysis (reference value: 50.48 %); format: functional
[8] = system: HCC827; experiment: Induction of apoptosis in human HCC827 cells assessed as viable cells at 1 uM incubated for 32 hrs by annexin V-FITC and PI staining based flow cytometry analysis (reference value: 72.15 %); format: functional; conditions: read-out: Activity
[9] = system: A549; experiment: Antiproliferative activity against human A549 cells harboring EGFR assessed as reduction in cell viability incubated for 72 hrs by MTT assay; format: functional, cell-based; conditions: A549, 72 h
[10] = system: HCC827; experiment: Induction of apoptosis in human HCC827 cells assessed as late apoptotic cells at 0.1 uM incubated for 32 hrs by annexin V-FITC and PI staining based flow cytometry analysis (reference value: 14.23 %); format: functional
[11] = system: HCC827; experiment: Induction of cell cycle arrest in human HCC827 cells assessed as accumulation in G2 phase at 0.1 uM incubated for 32 hrs by PI staining based flow cytometry analysis (reference value: 8.25 %); format: functional
[12] = system: HCC827; experiment: (§1) Protac activity at E3 ubiquitin ligase/EGFR in human HCC827 cells assessed as increase in degradation of EGFR incubated for 48 hrs by Western blot analysis; format: cell-based
[13] = as §1; format: cell-based; conditions: HCC827, 48 h
[14] = system: HCC827; experiment: Protac activity at E3 ubiquitin ligase/EGFR in human HCC827 cells assessed as increase in degradation of EGFR at 1 to 10 uM pretreated with MLN-4924 for 6 hrs followed by compound addition and measured after 30 hrs by Western blot analysis; format: cell-based; conditions: dose 1-10 µM
[15] = system: HCC827; experiment: Induction of cell cycle arrest in human HCC827 cells assessed as accumulation in G1 phase at 1 uM incubated for 32 hrs by PI staining based flow cytometry analysis (reference value: 50.48 %); format: functional
[16] = system: HCC827; experiment: Protac activity at E3 ubiquitin ligase/EGFR in human HCC827 cells assessed as increase in degradation of EGFR at 1 to 10 uM pretreated with MG-132 for 6 hrs followed by compound addition and measured after 30 hrs by Western blot analysis; format: cell-based; conditions: dose 1-10 µM
[17] = system: HCC827; experiment: Induction of apoptosis in human HCC827 cells assessed as necrotic cells at 1 uM incubated for 32 hrs by annexin V-FITC and PI staining based flow cytometry analysis (reference value: 7.12 %); format: functional
[18] = system: NCI-H1975; experiment: Antiproliferative activity against human NCI-H1975 cells harboring EGFR L858/T790M mutant assessed as reduction in cell viability incubated for 72 hrs by MTT assay; format: functional, cell-based; conditions: NCI-H1975, 72 h
[19] = system: HCC827; experiment: Induction of cell cycle arrest in human HCC827 cells assessed as accumulation in S phase at 0.1 uM incubated for 32 hrs by PI staining based flow cytometry analysis (reference value: 41.26 %); format: functional
[20] = system: HCC827; experiment: Induction of cell cycle arrest in human HCC827 cells assessed as accumulation in G2 phase at 1 uM incubated for 32 hrs by PI staining based flow cytometry analysis (reference value: 8.25 %); format: functional
[21] = system: HCC827; experiment: Protac activity at E3 ubiquitin ligase/EGFR in human HCC827 cells assessed as increase in degradation of EGFR measured upto 96 hrs by Western blot analysis; format: cell-based; conditions: time hrs <=96, TDE = time-dependent effect
[22] = system: HCC827; experiment: Protac activity at E3 ubiquitin ligase/EGFR in human HCC827 cells assessed as increase in degradation of EGFR at 100 nM pretreated with VHL-L for 5 hrs followed by compound addition and measured after 32 hrs by Western blot analysis; format: cell-based
[23] = system: HCC827; experiment: Protac activity at E3 ubiquitin ligase/EGFR in human HCC827 cells assessed as increase in degradation of EGFR at 100 nM incubated for 72 hrs by Western blot analysis relative to control; format: cell-based
[24] = system: HCC827; experiment: Induction of apoptosis in human HCC827 cells assessed as viable cells at 0.1 uM incubated for 32 hrs by annexin V-FITC and PI staining based flow cytometry analysis (reference value: 76.79 %); format: functional; conditions: read-out: Activity
[25] = system: NCI-H1975; experiment: Protac activity at E3 ubiquitin ligase/EGFR in human NCI-H1975 cells harboring EGFR T790M mutant assessed as increase in degradation of EGFR at 0.1 to 10 uM incubated for 48 hrs by Western blot analysis; format: cell-based; conditions: dose 0.1-10 µM
[26] = system: A549; experiment: Protac activity at E3 ubiquitin ligase/EGFR in human A549 cells harboring wild type EGFR assessed as increase in degradation of EGFR at 0.1 to 10 uM incubated for 48 hrs by Western blot analysis; format: cell-based; conditions: dose 0.1-10 µM
[27] = molecular target: Epidermal growth factor receptor (Homo sapiens) (UniProt P00533); experiment: Inhibition of EGFR in human HCC827 cells assessed as reduction in EGFR phosphorylation incubated for 36 hrs by Western blot analysis; format: cell-based; conditions: dose 0.1-1 µM
[28] = system: HCC827; experiment: Induction of apoptosis in human HCC827 cells assessed as late apoptotic cells at 1 uM incubated for 32 hrs by annexin V-FITC and PI staining based flow cytometry analysis (reference value: 18.02%); format: functional
[29] = system: HCC827; experiment: Induction of apoptosis in human HCC827 cells assessed as early apoptotic cells at 0.1 uM incubated for 32 hrs by annexin V-FITC and PI staining based flow cytometry analysis (reference value: 2.31 %); format: functional
[30] = system: HCC827; experiment: Protac activity at E3 ubiquitin ligase/EGFR in human HCC827 cells assessed as increase in degradation of EGFR at 100 nM incubated for 96 hrs by Western blot analysis relative to control; format: cell-based
[31] = system: HCC827; experiment: Protac activity at E3 ubiquitin ligase/EGFR in human HCC827 cells assessed as increase in degradation of EGFR at 100 nM pretreated with lenalidomide for 2 hrs followed by compound addition and measured after 48 hrs by Western blot analysis; format: cell-based

Sequence of Epidermal growth factor receptor (Homo sapiens) (P00533 whole entry): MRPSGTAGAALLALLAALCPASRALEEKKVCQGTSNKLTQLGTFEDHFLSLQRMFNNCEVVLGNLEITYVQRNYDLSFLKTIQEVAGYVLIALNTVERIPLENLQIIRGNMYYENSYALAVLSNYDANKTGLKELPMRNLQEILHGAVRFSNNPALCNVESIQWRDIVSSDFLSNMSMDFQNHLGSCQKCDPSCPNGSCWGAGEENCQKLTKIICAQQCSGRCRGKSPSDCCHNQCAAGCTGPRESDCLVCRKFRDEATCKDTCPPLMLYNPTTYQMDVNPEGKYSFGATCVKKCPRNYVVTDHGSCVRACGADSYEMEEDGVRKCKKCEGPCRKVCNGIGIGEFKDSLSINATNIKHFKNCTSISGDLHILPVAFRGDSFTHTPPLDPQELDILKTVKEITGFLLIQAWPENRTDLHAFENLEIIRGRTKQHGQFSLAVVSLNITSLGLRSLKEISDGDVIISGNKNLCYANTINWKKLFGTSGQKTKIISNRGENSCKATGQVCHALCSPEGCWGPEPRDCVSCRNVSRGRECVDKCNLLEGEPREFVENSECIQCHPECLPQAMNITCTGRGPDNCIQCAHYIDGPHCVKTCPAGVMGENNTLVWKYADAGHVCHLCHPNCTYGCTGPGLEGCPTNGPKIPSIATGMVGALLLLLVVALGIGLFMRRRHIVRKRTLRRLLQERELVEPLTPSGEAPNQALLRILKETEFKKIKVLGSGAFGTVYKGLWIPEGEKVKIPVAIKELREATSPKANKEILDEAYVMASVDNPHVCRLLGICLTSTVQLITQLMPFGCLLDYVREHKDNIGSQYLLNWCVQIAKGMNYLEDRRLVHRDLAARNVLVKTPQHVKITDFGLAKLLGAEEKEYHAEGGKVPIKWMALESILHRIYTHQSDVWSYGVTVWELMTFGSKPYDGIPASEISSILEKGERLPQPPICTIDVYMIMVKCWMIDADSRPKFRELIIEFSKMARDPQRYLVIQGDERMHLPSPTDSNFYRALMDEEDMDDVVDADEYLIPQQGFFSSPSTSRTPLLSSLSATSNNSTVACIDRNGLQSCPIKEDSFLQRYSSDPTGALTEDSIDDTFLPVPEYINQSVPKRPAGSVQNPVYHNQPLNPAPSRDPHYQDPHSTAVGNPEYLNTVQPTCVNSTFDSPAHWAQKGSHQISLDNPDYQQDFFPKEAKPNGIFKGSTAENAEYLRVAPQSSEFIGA

CN(C)C1CCN(c2ccc(Nc3cc4c(N5CCN(CC(=O)NCCC(=O)Nc6cccc7c6CN(C6CCC(=O)NC6=O)C7=O)CC5)nc(Nc5ccc(F)cc5)nc4cn3)nc2)CC1 (centres undefined)
IC50 [1]: 4630 nM | IC50 [2]: > 10000 nM

CN(C)C1CCN(c2ccc(Nc3cc4c(N5CCN(CCCCCCCC(=O)Nc6cccc7c6CN(C6CCC(=O)NC6=O)C7=O)CC5)nc(Nc5ccc(F)cc5)nc4cn3)nc2)CC1 (centres undefined)
IC50 [1]: 1450 nM

Cc1ncsc1-c1ccc(CNC(=O)[C@@H]2C[C@@H](O)CN2C(=O)[C@@H](NC(=O)CCCCCCN2CCN(c3ccc(Nc4cc5c(N6CCC(CO)CC6)nc(Nc6ccc(F)cc6)nc5cn4)nc3)CC2)C(C)(C)C)cc1
Activity [3]: inactive | Activity [4]: 7.99% | Activity [5]: 6.62% | Activity [6]: 4.36% | Activity [7]: 81.94% | viability at 1 µM [8]: 22.4% | IC50 [9]: > 10000 nM | Activity [10]: 25.73% | IC50 [1]: 220 nM | Activity [11]: 6.39% | Activity [12]: Dose-dependent effect | DC50 [13]: 34.8 nM | Activity [14]: Active | Activity [15]: 83.15% | Activity [16]: inactive | Activity [17]: 9.9% | IC50 [18]: > 10000 nM | Activity [19]: 11.67% | IC50 [2]: > 10000 nM | Activity [20]: 8.86% | Activity [21]: Tde | Activity [22]: inactive | Emax [23]: 98% | viability at 0.1 µM [24]: 59.7% | Activity [25]: Active | Activity [26]: Active | inhibition [27]: Dose-dependent effect | Activity [28]: 63.29% | Activity [29]: 7.95%

O=C1CCC(N2Cc3c(NC(=O)CCCCCN4CCN(c5ccc(Nc6cc7c(N8CCC(CO)CC8)nc(Nc8ccc(F)cc8)nc7cn6)nc5)CC4)cccc3C2=O)C(=O)N1 (centres undefined)
IC50 [1]: > 10000 nM

CN(C)C1CCN(c2ccc(Nc3cc4c(N5CCC(CO)CC5)nc(Nc5ccc(F)cc5)nc4cn3)nc2)CC1
Activity [4]: 13.43% | Activity [5]: 8.35% | Activity [6]: 4.79% | Activity [7]: 78.84% | viability at 1 µM [8]: 24.9% | Activity [10]: 43.7% | Activity [11]: 7.72% | Activity [15]: 78.98% | Activity [17]: 16.48% | Activity [19]: 13.43% | Activity [20]: 7.56% | viability at 0.1 µM [24]: 39.5% | inhibition [27]: Active | Activity [28]: 53.88% | Activity [29]: 8.5%

Nc1cccc2c1CN(C1CCC(=O)NC1=O)C2=O (centres undefined) [LENALIDOMIDE]
IC50 [1]: > 10000 nM

O=C1CCC(N2Cc3c(NC(=O)CCCCCCCN4CCN(c5ccc(Nc6cc7c(N8CCC(CO)CC8)nc(Nc8ccc(F)cc8)nc7cn6)nc5)CC4)cccc3C2=O)C(=O)N1 (centres undefined)
Activity [3]: inactive | Activity [4]: 10.63% | Activity [5]: 8.21% | Activity [6]: 4.16% | Emax [30]: 87% | Activity [7]: 82.95% | viability at 1 µM [8]: 35.5% | IC50 [9]: > 10000 nM | Activity [10]: 26.38% | IC50 [1]: 180 nM | Activity [11]: 6.26% | Activity [12]: Dose-dependent effect | DC50 [13]: 45.2 nM | Activity [14]: Active | Activity [15]: 81.89% | Activity [16]: inactive | Activity [17]: 9.74% | IC50 [18]: > 10000 nM | Activity [19]: 10.79% | IC50 [2]: > 10000 nM | Activity [20]: 7.47% | Activity [31]: inactive | Activity [21]: Tde | viability at 0.1 µM [24]: 59.5% | Activity [25]: Active | Activity [26]: Active | inhibition [27]: Dose-dependent effect | Activity [28]: 49.56% | Activity [29]: 5.93%

Cc1ncsc1-c1ccc(CNC(=O)[C@@H]2C[C@@H](O)CN2C(=O)[C@@H](NC(=O)CCCCN2CCN(c3ccc(Nc4cc5c(N6CCC(CO)CC6)nc(Nc6ccc(F)cc6)nc5cn4)nc3)CC2)C(C)(C)C)cc1
IC50 [1]: 1490 nM
